The source made the active and inactive calls. The rule behind the calls is not given here.
Legend:
Rattus norvegicus [1] = assay: Antidiabetic activity in Rattus norvegicus albino (rat) assessed as inhibition in rise of blood glucose level at 20 mg/kg, po administered 30 min prior to glucose challenge measured post 60 min of challenge by oral glucose tolerance test relative to control; format: functional
Rattus norvegicus [2] = assay: Antidiabetic activity in overnight fastedRattus norvegicus albino (rat) assessed as reduction in blood glucose level at 20 mg/kg, po measured after 60 min by oral glucose tolerance test relative to control (reference value: 78.0 +/- 1.167 mg/dl); format: functional

Row | Structure (SMILES) | inhibition (Rattus norvegicus [1]) | Activity (Rattus norvegicus [2]) | inhibition in vivo at 20 mg/kg (Rattus norvegicus [1])
1 | O=C(NCc1ccccc1)NS(=O)(=O)c1ccc(N2N=C(c3ccc(Oc4ccccc4)cc3)CCC2=O)cc1 | inactive | – | –
2 | Cc1ccc(C2=NN(c3ccc(S(=O)(=O)NC(=O)NCc4ccccc4)cc3)C(=O)CC2)cc1 | inactive | – | –
3 | Cc1ccc(S(=O)(=O)NC(=O)NN2CC3CCCC3C2)cc1 (stereo not drawn) [GLICLAZIDE] | – | 58.2 mg/dL | 61.4%
4 | COc1ccc(C2=NN(c3ccc(S(=O)(=O)NC(=O)NCc4ccccc4)cc3)C(=O)CC2)cc1 | – | – | 41.4%
5 | Cc1ccc(C2=NN(c3ccc(S(=O)(=O)NC(=O)NCc4ccccc4)cc3)C(=O)CC2)c(C)c1 | – | – | 6.5%
6 | CCc1ccc(C2=NN(c3ccc(S(=O)(=O)NC(=O)NCc4ccccc4)cc3)C(=O)CC2)cc1 | – | 62 mg/dL | 86.9%
